Reference: patent US8629273B2, “Diazinylpyrazolyl compounds” (Bayer Intellectual Property GmbH, priority 2009, dated 2014)

Experiments:
[1] = test system: caterpillars of the army worm (Spodoptera frugiperda); test: Spodoptera frugiperda test (SPODFR spray treatment); type: in vivo; conditions: after 7 days
Procedure: Solvents: 78.0 parts by weight of acetone • • 1.5 parts by weight of dimethyl formamide Emulsifier: 0.5 part by weight of alkylaryl polyglycol ether To produce a suitable preparation of active compound, 1 part by weight of active compound is mixed with the stated amounts of solvent and emulsifier, and the concentrate is diluted with emulsifier-containing water to the desired concentration. Discs of maize leaves (Zea mays) are sprayed with an active compound preparation of the desired concentration and, after drying, populated with caterpillars of the army worm (Spodoptera frugiperda). After 7 days, the activity in % is determined. 100% means that all caterpillars have been killed; 0% means that none of the caterpillars have been killed. The test was carried out and evaluated as described in Example B.5.

[2] = test system: greenhouse red spider mite (Tetranychus urticae); test: Tetranychus test, OP resistant (TETRUR spray treatment); type: in vivo; conditions: after 6 days
Procedure: Solvents: 78.0 parts by weight of acetone • • 1.5 parts by weight of dimethyl formamide Emulsifier: 0.5 part by weight of alkylaryl polyglycol ether To produce a suitable preparation of active compound, 1 part by weight of active compound is mixed with the stated amounts of solvent and emulsifier, and the concentrate is diluted with emulsifier-containing water to the desired concentration. Discs of bean leaves (Phaseolus vulgaris) which are infested by all stages of the greenhouse red spider mite (Tetranychus urticae) are sprayed with an active compound preparation of the desired concentration. After 6 days, the activity in % is determined. 100% means that all spider mites have been killed; 0% means that none of the spider mites has been killed. The test was carried out and evaluated as described in Example B.7.

[3] = logP by HPLC on reversed-phase columns (C 18), EU Guideline 79/831 Annex V.A8; type: physicochemical; conditions: ** LC-MS in the neutral range, pH 7.8, 0.001 molar aqueous ammonium bicarbonate and acetonitrile
[4] = test system: larvae of the mustard beetle (Phaedon cochleariae); test: Phaedon test (PHAECO spray treatment); type: in vivo; conditions: after 7 days
Procedure: Solvents: 78.0 parts by weight of acetone • • 1.5 parts by weight of dimethyl formamide Emulsifier: 0.5 part by weight of alkylaryl polyglycol ether To produce a suitable preparation of active compound, 1 part by weight of active compound is mixed with the stated amounts of solvent and emulsifier, and the concentrate is diluted with emulsifier-containing water to the desired concentration. Discs of Chinese cabbage leaves (Brassica pekinensis) are sprayed with an active compound preparation of the desired concentration and, after drying, populated with larvae of the mustard beetle (Phaedon cochleariae). After 7 days, the activity in % is determined. 100% means that all beetle larvae have been killed; 0% means that none of the beetle larvae have been killed. The test was carried out and evaluated as described in Example B.4.

Ctenocephalides felis = Ctenocephalides felis oral (CTECFE); type: in vivo; conditions: 100 ppm in citrated cattle blood, after 2 days
Procedure: Solvent: 1 part by weight of dimethyl sulphoxide To produce a suitable preparation of active compound, 10 mg of active compound are mixed with 0.5 ml of dimethyl sulphoxide. One part of the concentrate is diluted with citrated cattle blood, and the desired concentration is prepared. 20 unfed adult fleas (Ctenocephalides felis) are placed into a chamber whose top and bottom ends are closed with gauze. A metal cylinder whose bottom end is closed with parafilm is placed onto the chamber. The cylinder contains the blood/active compound preparation, which can be taken up by the fleas through the parafilm membrane. After 2 days, the kill in % is determined. 100% means that all fleas have been killed; 0% means that none of the fleas have been killed.

Boophilus microplus = Boophilus microplus test (BOOPMI injection); type: in vivo; conditions: 20 μg/animal, injected into the abdomen, after 7 days
Procedure: Solvent: Dimethyl Sulphoxide To produce a suitable preparation of active compound, 10 mg of active compound are mixed with 0.5 ml of solvent, and the concentrate is diluted with water to the desired concentration. The active compound solution is injected into the abdomen (Boophilus microplus) and the animals are transferred into dishes and stored in a climatized room. The activity is monitored for deposition of fertile eggs. After 7 days, the activity in % is determined. 100% means that none of the ticks has laid fertile eggs.

Lucilia cuprina larvae = test: Lucilia cuprina test (LUCICU); type: in vivo; conditions: 100 ppm, treated horse meat, after 2 days
Procedure: Solvent: Dimethyl Sulphoxide To produce a suitable preparation of active compound, 10 mg of active compound are mixed with 0.5 ml of dimethyl sulphoxide, and the concentrate is diluted with water to the desired concentration. Containers containing horse meat treated with the active compound preparation of the desired concentration are populated with Lucilia cuprina larvae. After 2 days, the kill in % is determined. 100% means that all larvae have been killed; 0% means that none of the larvae have been killed.

adult Musca domestica = test: Musca domestica test (MUSCDO); type: in vivo; conditions: treated sponge
Procedure: Solvent: Dimethyl sulphoxide To prepare a suitable preparation of active compound, 10 mg of active component are mixed with 0.5 ml of dimethyl sulphoxide, and the concentrate is diluted with water to the desired concentration. Vessels containing a sponge which had been treated with the active compound preparation of the desired concentration are populated with adult Musca domestica. After the desired period of time, the kill in % is determined. 100% means that all flies have been killed; 0% means that none of the flies have been killed.

[5] = test system: Boophilus microplus strain Parkhurst (SP-resistant); test: Boophilus microplus test (DIP); type: in vivo; conditions: 100 ppm
Procedure: Test animals: adult fed females of the Boophilus microplus strain Parkhurst (SP-resistant)
Solvent: Dimethyl sulphoxide
10 mg of active compound are dissolved in 0.5 ml of dimethyl sulphoxide. To produce a suitable formulation, the active compound solution is diluted with water to the particular desired concentration. This active compound preparation is pipetted into tubes. 8-10 ticks are transferred into a further tube provided with holes. The tube is dipped into the active compound preparation, with all ticks being wetted completely. After the liquid has run off, the ticks are transferred to filter discs in plastic dishes and kept in a climatized room. After the desired period of time, the activity is checked for deposition of fertile eggs. Eggs whose fertility is not visible from the outside are kept in glass tubes in a climatized cupboard under the larvae have hatched. An activity of 100% means that no tick has laid fertile eggs.

Row | SMILES | activity (caterpillars killed) ([1]; 100 g/ha) | activity (spider mites killed) ([2]; 100 g/ha) | logP [3] | activity (beetle larvae killed) ([4]; 100 g/ha) | kill (Ctenocephalides felis) [%] | activity (no deposition of fertile eggs) (Boophilus microplus) [%] | activity (caterpillars killed) ([1]; 20 g/ha) [%] | kill (Lucilia cuprina larvae) [%] | activity (beetle larvae killed) ([4]; 4 g/ha) [%] | kill (adult Musca domestica; 20 ppm) [%] | activity (spider mites killed) ([2]; 20 g/ha) | activity (no deposition of fertile eggs) [5] [%] | kill (adult Musca domestica; 100 ppm) [%]
1 | COc1cc(C=Nc2c(-c3cc(Cl)cc(C(F)(F)F)c3)c(C(F)(F)F)nn2-c2ncccn2)ccc1O [Example 1-10] | 100% | 100% | 4.05** | 100% | – | – | – | – | – | – | – | – | –
2 | FC(F)(F)c1cc(Cl)cc(-c2c(C(F)(F)F)nn(-c3ncccn3)c2N=Cc2ccccc2)c1 [Example 1-12] | 100% | 100% | 4.92** | 100% | 100 | 100 | 100 | 100 | 100 | 100 | – | – | –
3 | COc1ccc(C=Nc2c(-c3cc(Cl)cc(C(F)(F)F)c3)c(C(F)(F)F)nn2-c2ncccn2)cc1 [Example 1-17] | 100% | 100% | 4.98** | 100% | 100 | 100 | – | 100 | – | 100 | – | – | –
4 | FC(F)(F)c1nn(-c2ncccn2)c(N=Cc2ccccc2)c1-c1cc(Cl)c2c(c1)OCO2 [Example 1-18] | 100% | 90% | 3.97** | 100% | 100 | 100 | 67 | 100 | – | 80 | at least 90% | 100 | –
5 | COc1ccc(C=Nc2c(-c3cc(Cl)cc(C(F)(F)F)c3)c(C(F)(F)C(F)F)nn2-c2ncccn2)cc1 [Example 1-21] | 100% | 90% | 3.69** | 100% | 100 | 100 | – | 100 | – | – | – | – | 100
6 | FC(F)C(F)(F)c1nn(-c2ncccn2)c(N=Cc2ccc(Cl)cc2)c1-c1cc(Cl)c2c(c1)OCO2 [Example 1-22] | 100% | 90% | 4.34** | 100% | 100 | 100 | – | 100 | – | – | – | 100 | –
7 | CCOC=Nc1c(-c2cc(Cl)c3c(c2)OCO3)c(C(F)(F)C(F)F)nn1-c1ncccn1 [Example 1-35] | 100% | 90% | 3.42** | 100% | 100 | 100 | – | 100 | – | 100 | – | 100 | –
8 | CC(C)OC=Nc1c(-c2cc(Cl)c3c(c2)OCO3)c(C(F)(F)C(F)F)nn1-c1ncccn1 [Example 1-38] | 100% | 100% | 3.66** | 100% | 100 | 100 | – | 100 | – | 100 | – | 100 | –
9 | FC(F)(F)c1cc(Cl)cc(-c2c(C(F)(F)C(F)(F)F)nn(-c3ncccn3)c2N=Cc2ccc(Cl)cc2)c1 [Example 1-40] | 100% | 100% | 5.93** | 100% | 100 | 100 | – | 100 | – | – | – | – | 100
10 | COc1ccc(C=Nc2c(-c3cc(Cl)cc(C(F)(F)F)c3)c(C(F)(F)C(F)(F)F)nn2-c2ncccn2)cc1 [Example 1-41] | 100% | 100% | 5.4** | 100% | 100 | 100 | – | 100 | – | – | – | – | 100
11 | CC(C)OC=Nc1c(-c2cc(Cl)cc(C(F)(F)F)c2)c(C(F)(F)C(F)(F)F)nn1-c1ncccn1 [Example 1-44] | 100% | 100% | 5.31** | 100% | – | – | – | – | – | – | – | – | –
12 | COc1nccnc1-n1nc(C(F)(F)F)c(-c2cc(Cl)c3c(c2)OCO3)c1N=COC(C)C [Example 2-19] | 100% | 100% | 4.26** | 100% | 90 | 100 | – | 100 | – | 100 | – | 80 | –
13 | COc1nccnc1-n1nc(C(F)(F)C(F)F)c(-c2cc(Cl)cc(C(F)(F)F)c2)c1N=COC(C)C [Example 2-20] | – | 100% | 5.1** | – | – | 100 | – | 100 | – | – | – | – | 80
14 | FC(F)(F)c1nn(-c2ncccn2)c(NCc2ccccc2)c1-c1cc(Cl)c2c(c1)OCO2 [compound (XXI), reference compound] | – | – | – | – | – | – | 0 | – | – | – | 0% | – | –
15 | COc1ccc(CNc2c(-c3cc(Cl)cc(C(F)(F)F)c3)c(C(F)(F)F)nn2-c2ncccn2)cc1 [compound (XXII), reference compound] | no activity | no activity | – | no activity | – | – | – | – | – | – | – | – | –
